Assay results published in patent US8722052B2, “Vaccinia virus protein A46 peptide and use thereof” (priority 2008, dated 2014).
Square brackets hold non-standard residues; d marks the D form. Ends that are not written are not given here.

What was measured:
[1] = molecular target: T1, TLR4 (Mus musculus, UniProt Q9QUK6); assay: LPS-induced TNFα in immortalised murine macrophages, ELISA; type: cell-based; design: endogenous in cells; immortalised murine bone-marrow-derived macrophages; settings: peptide 1, 3, 6.25 and 12.5 μM, 20 ng/ml LPS, 6 h
T1 sequence (Q9QUK6 26-835): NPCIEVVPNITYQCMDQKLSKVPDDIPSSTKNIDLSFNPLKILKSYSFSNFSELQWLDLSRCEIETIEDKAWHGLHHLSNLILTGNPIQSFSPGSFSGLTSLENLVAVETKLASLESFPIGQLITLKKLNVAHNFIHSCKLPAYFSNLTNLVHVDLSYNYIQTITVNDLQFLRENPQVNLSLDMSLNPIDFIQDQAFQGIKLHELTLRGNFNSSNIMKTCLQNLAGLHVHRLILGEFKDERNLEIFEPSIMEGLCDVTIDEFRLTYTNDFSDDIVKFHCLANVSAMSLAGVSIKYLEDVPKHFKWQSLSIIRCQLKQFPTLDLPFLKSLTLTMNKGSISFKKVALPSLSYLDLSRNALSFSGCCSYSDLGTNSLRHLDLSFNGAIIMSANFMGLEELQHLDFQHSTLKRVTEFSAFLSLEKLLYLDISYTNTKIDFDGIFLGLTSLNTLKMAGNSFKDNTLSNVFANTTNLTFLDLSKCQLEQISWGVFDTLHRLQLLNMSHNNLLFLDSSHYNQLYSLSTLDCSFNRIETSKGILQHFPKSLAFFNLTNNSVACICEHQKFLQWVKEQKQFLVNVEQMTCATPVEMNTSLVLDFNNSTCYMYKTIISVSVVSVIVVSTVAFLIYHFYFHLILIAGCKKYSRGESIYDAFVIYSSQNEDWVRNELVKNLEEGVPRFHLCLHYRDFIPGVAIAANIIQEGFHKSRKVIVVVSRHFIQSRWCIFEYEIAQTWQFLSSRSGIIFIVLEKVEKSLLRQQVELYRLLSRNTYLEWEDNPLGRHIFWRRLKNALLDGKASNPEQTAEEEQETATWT
T1 sequence (Q9JHF9 19-160 partner): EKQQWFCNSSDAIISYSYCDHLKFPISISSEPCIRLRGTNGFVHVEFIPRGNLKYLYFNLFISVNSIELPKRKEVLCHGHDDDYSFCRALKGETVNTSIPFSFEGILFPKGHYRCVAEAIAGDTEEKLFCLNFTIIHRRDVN

[2] = molecular target: T1, TLR4; assay: as above; type: cell-based; design: endogenous in cells; immortalised murine bone-marrow-derived macrophages; settings: 6 h; for inhibition of LPS-induced mTNFα production: peptide 1, 5 or 25 μM 1 h before 10 ng/ml LPS
Protocol: (§1) FIGS. 14A and B are bar charts showing the comparison of the inhibitory effect of the L- and D-forms of A464 on LPS-induced TNFα in primary human and murine cells. PBMC (1×10^6 cells/ml, (A)) or immortalised murine macrophages (1.5×10^5 cells/ml, (B)) were seeded in 96 well plates 24 hours before treatment. L-form and D-form A464 peptides (with the 9R delivery peptide on the C-terminus, SEQ ID NO. 20) were added to the cells at a concentration of 1, 5 or 25 μM 1 hour before stimulating with 10 ng/ml LPS. Supernatants were collected 6 hours after stimulation and assayed for either human (A) or murine (B) TNFα production by ELISA. No peptides were added to the control wells (black bars). Data is representative of at least three experiments each performed in triplicate and is expressed as mean±s.d;
(§2) FIGS. 15A and B are bar charts showing the effect of the D-form A464 peptide with the TAT delivery sequence on LPS induced TNFα in primary human and murine cells. PBMC (A) and immortalised murine macrophages (B) were seeded in 96 well plates 24 hours before treatment. D-form of A467 (SEQ ID NO. 37) and A464 (SEQ ID NO. 36) with the TAT delivery sequence were added to the cells at a concentration of 1, 5 or 25 μM 1 hour before stimulating with 10 ng/ml LPS. The peptides were added into the unstimulated control wells at 25 μM. Supernatants were collected 6 hours after stimulation and assayed for either human (A) or murine (B) TNFα production by ELISA. No peptides were added to the control wells (black bars). Data is representative of at least three experiments each performed in triplicate and is expressed as mean±s.d;
(§3) FIGS. 16A and B are bar charts showing the effect of attaching 9R to the N-terminus of A464 on LPS-induced TNFα in primary human and murine cells. Immortalised murine macrophages (A) and PBMC (B) were seeded in 96 well plates 24 hours before treatment. L-form of A467 (SEQ ID NO. 39) and A464 (SEQ ID NO. 38) with the 9R-delivery sequence at the N-terminus were added to the cells at a concentration of 1, 5 or 25 μM 1 hour before stimulating with 10 ng/ml LPS. The peptides were added into the unstimulated control wells at […]. Supernatants were collected 6 hours after stimulation and assayed for either murine (A) or human (B) TNFα production by ELISA. No peptides were added to the control wells (black bars). Data is representative of at least three experiments each performed in triplicate and is expressed as mean±s.d;
(§4) FIGS. 17A and B are bar charts showing the effect of the D-form A464 with 9R at the N-terminus on LPS-induced TNFα in primary human and murine cells. Immortalised murine macrophages (A) and PBMC (B) were seeded in 96 well plates 24 hours before treatment. D-form of A467 (SEQ ID NO. 39) and A464 (SEQ ID NO. 38) peptides with the 9R-delivery sequence at N-terminus were added to the cells at a concentration of 1, 5 or 25 μM 1 hour before stimulating with 10 ng/ml LPS. The peptides were added into the unstimulated control wells at 25 μM. Supernatants were collected 6 hours after stimulation and assayed for either murine (A) or human (B) TNFα production by ELISA. No peptides were added to the control wells (black bars). Data is representative of at least three experiments each performed in triplicate and is expressed as mean±s.d;
FIGS. 18A and B are bar charts showing the effect of shortened A464 peptides with deletions of N- and C-terminal amino acids on LPS-induced TNFα in murine macrophages. Immortalised murine macrophages were seeded in 96 well plates (1.5×10^5 cells/ml) 24 hours before treatment. A464 peptides with a deletion of one (N-1) (SEQ ID NO. 40) or two (N-2) (SEQ ID NO. 41) amino acids from the N-terminus (A), or three (C-3) (SEQ ID NO. 42) or six (C-6) (SEQ ID NO. 43) amino acids from the C-terminus (B), were added to the cells at a concentration of 1, 5 or 25 μM 1 hour before stimulating with 10 ng/ml LPS. Peptides were added to the control wells at 25 μM. […]

[3] = test system: TLR4; assay: LPS-induced TNFα in primary human PBMC, ELISA; type: cell-based; settings: 6 h; for inhibition of LPS-induced hTNFα production: peptide 1, 5 or 25 μM 1 h before 10 ng/ml LPS; for inhibitory potential compared to parental A464 (alanine scan): peptide 5 μM, 10 ng/ml LPS
Protocol: FIGS. 13A and B are bar charts showing the effect of A467 and A464 on LPS-induced TNFα production and on cell viability in primary human cells. Peripheral blood mononuclear cells (PBMCs) were seeded in 96 well plates (1 ×10^6 cells/ml) 24 hours before treatment. A467 (SEQ ID NO. 23) and A464 (SEQ ID NO. 20) were added to the cells at 1, 5 and 25 μM 1 hour before stimulating with 10 ng/ml LPS. The peptides were added into the unstimulated control wells at 25 μM. Supernatants were collected 6 hours after stimulation and assayed for TNFα production by ELISA (A). The cells were assayed for viability by the MTT assay (B). No peptides were added to the control wells (black bars). Data is representative of at least three experiments each performed in triplicate and is expressed as mean±s.d;
as §1, §2, §3
as §4, with “Data is representative of at least three experiments each performed in triplicate and is expressed as mean±s.d;” left out

[4] = test system: cell viability; assay: MTT cell viability assay, more detailed investigation of screening hits; type: cell-based; settings: cell type not stated
Protocol: Cell viability was measured by assessing mitochondrial function using an MTT (3-(4,5-Dimethylthiazol-2-yl)-2,5-diphenyltetrazolium bromide) assay. Cells were seeded into 96 well plates and treated with peptides and agonists as described above in relation to the Figs. Wells containing medium only served as a blank control. To terminate treatment of cells, medium was removed and the cells were washed once with PBS. 200 μl per well of 1 mg/ml MTT in PBS was added directly to the cells and the plates were incubated at 37° C. for 14-16 hrs in the dark. MTT was then removed and 200 μl per well of dimethyl sulphoxide (DMSO) was added and cells incubated for 20 min at 37° C. in the dark, prior to absorbance being read at 595 nm on a spectrophotometer.

[5] = molecular target: T1, TLR4; assay: LPS-induced TNFα in RAW264.7 cells, ELISA; type: cell-based, murine; design: endogenous in cells; host or cells: RAW264.7; immortalised murine bone-marrow-derived macrophages; settings: peptide 5 or 25 μM 1 h before 10 ng/ml LPS, 6 h, A464 5 μM as positive control
Protocol: FIGS. 5A and B are bar charts showing the dose-dependent inhibitory effect of A464R on LPS-induced TNFα in murine RAW264.7 cells. A464 (SEQ ID NO. 20) was added to the cells at a concentration of 5, 20 or 50 μM 1 hour before stimulating with 100 ng/ml LPS. Supernatant was collected 24 hours after stimulation and assayed for TNFα by ELISA (A) and cells were assayed for viability by the MTT assay (B.). No peptides were added to the control wells (black bars). Data is representative of at least three experiments each performed in triplicate and is expressed as mean±s.d;
FIGS. 6A and B are bar charts showing the effect of peptides derived from A46 on LPS-induced TNFα in murine RAW264.7 cells. A46 peptides were added to the cells at a concentration of 1 or 5 μM 1 hour before stimulating with 10 ng/ml LPS. Supernatants were collected 6 hours after stimulation and assayed for TNFα by ELISA. No peptides were added into the control wells (black bars). (A) peptides A461-A467 (SEQ ID NO. 17 to 23). (B) peptides A468-A4614 (SEQ ID NO. 24 to 30) (excluding A4610 SEQ ID NO. 26 and A4612 SEQ ID NO. 28). Data is representative of at least two experiments each performed in triplicate and is expressed as mean±s.d;
FIGS. 22 A and B are bar charts showing the effect of short A467 and A464 peptides, with 9R on either N- or C-terminus, on LPS- induced TNFα production in murine RAW264.7 cells. Cells were seeded in 96 well plates (1.5×10^5 cells/ml) 24 hours before treatment. Short A467 and short A464 peptides with the 9R delivery sequence on either the C-terminus (sA464C9R) (SEQ ID NO. 56) (A) or the N-terminus (sA464N9R) (SEQ ID NO. 57) (B) were added to the cells at a concentration of 5 or 25 μM 1 hour before stimulating with 10 ng/ml LPS. Normal full length A467 (SEQ ID NO. 23) and A464 (SEQ ID NO. 20) peptides were added at a concentration of 5 μM as positive controls. Supernatants were collected 6 hours after stimulation with the agonist and assayed for TNFα, by ELISA. No peptides were added to the control wells (black bars). Data is representative of at least three experiments each performed in triplicate and is expressed as mean±s.d;
Cytokine and chemokine production from cells or mouse serum was measured by ELISA using Duoset kits from R&D systems, according to the manufacturer's instructions.

Q: “9R-FKLI (RRRRRRRRRFKLI) [Peptide 9R-FKLI]” was tested. Which “inhibition of TLR4-induced murine TNFα by shorter versions of sA464N9R” value [1] did it give?
A: The value was “did not”.

Q: With “D-A464-TAT ([dK][dY][dS][dF][dK][dL][dI][dL][dA][dE][dY][dY]G[dR][dK][dK][dR][dR][dQ][dR][dR][dR])” as the substance, how does the “inhibition of LPS-induced mTNFα production” value [2] read?
A: Its value is “still inhibited, but only at 5-25 μM”.

Q: And the “inhibition of LPS-induced hTNFα production” value [3]?
A: The value was “failed to inhibit LPS-induced hTNFα production at 1-25 μM”.

Q: DFVNFVKDMICRRRRRRRRR [Peptide A4610] was tested. Which “cell viability (MTT assay)” value [4] did it give?
A: The value was “reduced cell viability”.

Q: With DSGLFDFVNFVRRRRRRRRR [Peptide A469] as the substance, how does the “cell viability (MTT assay)” value [4] read?
A: Its value is “reduced cell viability”.

Q: Which “inhibitory potential compared to parental A464 (alanine scan)” value [3] does the source give for “KYSAKLILAEY-9R (KYSAKLILAEYRRRRRRRRR) [Peptide F4A]” here?
A: Its value is “reduced inhibitory potential”.

Q: For “KYSFALILAEY-9R (KYSFALILAEYRRRRRRRRR) [Peptide K5A]”, which “inhibitory potential compared to parental A464 (alanine scan)” value [3] is on record?
A: The value was “reduced inhibitory potential”.

Q: For KYSFK-9R [Peptide A464C-6], which “inhibition of LPS-induced mTNFα production” value [2] is on record?
A: Its value is “lost its ability to inhibit LPS-induced TNFα production”.

Q: Which results are given for “KYSFKAILAEY-9R (KYSFKAILAEYRRRRRRRRR) [Peptide L6A]”?
A: inhibition compared to A464 (alanine scan) ([2]; peptide 5 μM, 10 ng/ml LPS): reduced inhibition; inhibitory potential compared to parental A464 (alanine scan) [3]: reduced inhibitory potential

Q: “KYSFKLALAEY-9R (KYSFKLALAEYRRRRRRRRR) [Peptide I7A]” was tested. Which “inhibitory potential compared to parental A464 (alanine scan)” value [3] did it give?
A: Its value is “reduced inhibitory potential”.

Q: With KYSFKLILAEYRRRRRRRRR [D-A464] as the substance, how does the “inhibition of LPS-induced mTNFα production” value [2] read?
A: The value was “complete inhibition at 1”.

Q: And the “inhibition of LPS-induced hTNFα production” value [3]?
A: Its value is “only blocked TNFα secretion at 25 μM”.

Q: How did the “cell viability (MTT assay)” value [4] turn out when TYLYNKYSFKLRRRRRRRRR [Peptide A463] was run?
A: The value was “reduced cell viability”.

Q: sA464C9R (SFKLILRRRRRRRRR) was tested. Which “inhibition of LPS-induced TNFα by short peptides” value [5] did it give?
A: The value was “only when the delivery sequence was at the N-terminus”.

Q: sA464N9R (RRRRRRRRRSFKLIL) was tested. Which “inhibition of LPS-induced TNFα by short peptides” value [5] did it give?
A: The value was “inhibited LPS-induced TNFα production as potently as A464 (SEQ ID No. 20) at 5 μM”.
